Earlier results in patent US20120064152A1, “Analgesic and Anti-Inflammatory Compositions Comprising Domperidone and Methods of Using Same” (THE BOOTS COMPANY, priority 1996, published 2012).
Where two headings read alike, the source gives them in different places.

Settings: oral 100 mg sumatriptan

## CNS(=O)(=O)Cc1ccc2[nH]cc(CCN(C)C)c2c1 [sumatriptan]
Initial attacks
  effectiveness compared with aspirin 900 mg plus 10 mg metoclopramide: as effective as aspirin 900 mg plus 10 mg metoclopramide
Subsequent attacks
  effectiveness compared with aspirin 900 mg plus 10 mg metoclopramide: more effective
